In patent publication US8642585B2, “Indanyloxydihydrobenzofuranylacetic acids” (Boehringer Ingelheim International GmbH, priority 2012, dated 2014):

biological target: human GPR40 receptor (Homo sapiens, UniProt O14842); assay: Assay II: IP1 accumulation (IPOne HTRF) in 1321N1 cells stably expressing human GPR40; format: cell-based; details: 1321N1 cells expressing human GPR40, stimulation 1 h at 37° C., 5% CO2, LiCl 50 mM
Experimental: IP1 accumulation measurements using the IPOne assay system—1321N1 cells stably expressing human GPR40 receptor (Euroscreen, Belgium) are seeded 24 h before the assay in white 384-well plates in culture medium containing 10% FCS, 1% Na-Pyruvate and 400 μg/mL G418. IP1 is assayed according to the manufacturers description (Cisbio Bioassays, France). In brief, the assay is started by substitution of the culture medium by stimulation buffer (Hepes 10 mM, CaCl2 1 mM, MgCl2 0.5 mM, KCl 4.2 mM, NaCl 146 mM, glucose 5.5 mM and LiCl 50 mM, pH 7.4). Cells are stimulated for 1 h at 37° C., 5% CO2 by addition of the compounds that are diluted in stimulation buffer containing LiCl. Assays are stopped by adding HTRF-conjugates (IP1-d2 and Anti-IP1 cryptate Tb) and lysis buffer, provided by the manufacturer. After an incubation time of 1 h at room temperature plates are measured using an EnVision™, Perkin Elmer. The obtained fluorescence ratios at 665/615 nM are then used to calculate the pEC50 values using Assay Explorer 3.3 Software (Accelrys, Inc.) by interpolation using an IP1 reference curve and subsequent sigmoidal curve fitting allowing for a variable hill slope.

Chain of human GPR40 receptor (O14842 whole entry): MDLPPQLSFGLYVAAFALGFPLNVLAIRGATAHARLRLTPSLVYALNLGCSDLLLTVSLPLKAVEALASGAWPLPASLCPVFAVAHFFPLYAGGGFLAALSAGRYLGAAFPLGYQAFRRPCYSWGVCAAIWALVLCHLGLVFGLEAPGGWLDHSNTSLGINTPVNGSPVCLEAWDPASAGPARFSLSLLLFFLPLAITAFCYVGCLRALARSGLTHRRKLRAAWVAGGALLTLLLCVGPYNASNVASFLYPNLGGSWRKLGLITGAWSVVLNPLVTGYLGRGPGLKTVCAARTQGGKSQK

**Q.** For `Cc1cc(OC[C@@H]2CCS(=O)(=O)C2)cc(C)c1-c1ccc(F)c2c1CC[C@H]2Oc1ccc2c(c1)OC[C@H]2CC(=O)O` (single isomer, unassigned) [Example 46], which EC50 is on record?
**A.** 7 nM

**Q.** `Cc1cc(OC2CCC(C)(O)C2)cc(C)c1-c1ccc(F)c2c1CC[C@H]2Oc1ccc2c(c1)OC[C@H]2CC(=O)O` (single isomer, unassigned) [Example 78] was tested. Which EC50 did it give?
**A.** 4 nM

**Q.** Which EC50 does the source give for `Cc1cc(OC2CCC(C)(O)C2)cc(C)c1-c1ccc(F)c2c1CC[C@H]2Oc1ccc2c(c1)OC[C@H]2CC(=O)O` (single isomer, unassigned) [Example 79] here?
**A.** 5 nM

**Q.** With `Cc1cc(OC[C@@H](C)CS(C)(=O)=O)cc(C)c1-c1ccc(F)c2c1CC[C@H]2Oc1ccc2c(c1)OC[C@H]2CC(=O)O` [Example 36, ((S)-6-{(R)-7-Fluoro-4-[4-((R)-3-methanesulfonyl-2-methyl-propoxy)-2,6-dimethyl-phenyl]-indan-1-yloxy}-2,3-dihydro-benzofuran-3-yl)-acetic acid] as the compound, how does the EC50 read?
**A.** 8 nM

**Q.** With `Cc1cc(OC[C@H](C)CS(C)(=O)=O)cc(C)c1-c1ccc(F)c2c1CC[C@H]2Oc1ccc2c(c1)OC[C@H]2CC(=O)O` [Example 37, ((S)-6-{(R)-7-Fluoro-4-[4-((S)-3-methanesulfonyl-2-methyl-propoxy)-2,6-dimethyl-phenyl]-indan-1-yloxy}-2,3-dihydro-benzofuran-3-yl)-acetic acid] as the compound, how does the EC50 read?
**A.** 6 nM

**Q.** How did the EC50 turn out when `Cc1cc(OCCN2CCCS2(=O)=O)cc(C)c1-c1ccc(F)c2c1CC[C@H]2Oc1ccc2c(c1)OC[C@H]2CC(=O)O` [Example 40] was run?
**A.** 13 nM

**Q.** With `Cc1cc(OC2CCS(=O)(=O)NC2)cc(C)c1-c1ccc(F)c2c1CC[C@H]2Oc1ccc2c(c1)OC[C@H]2CC(=O)O` (stereo partly drawn) [Example 41, ((S)-6-{(R)-4-[4-(1,1-Dioxo-1-[1,2]thiazinan-4-yloxy)-2,6-dimethyl-phenyl]-7-fluoro-indan-1-yloxy}-2,3-dihydro-benzofuran-3-yl)-acetic acid] as the compound, how does the EC50 read?
**A.** 18 nM

**Q.** For `Cc1cc(OC2CCS(=O)(=O)N(C)C2)cc(C)c1-c1ccc(F)c2c1CC[C@H]2Oc1ccc2c(c1)OC[C@H]2CC(=O)O` (stereo partly drawn) [Example 42, ((S)-6-{(R)-4-[2,6-Dimethyl-4-(2-methyl-1,1-dioxo-1-[1,2]thiazinan-4-yloxy)-phenyl]-7-fluoro-indan-1-yloxy}-2,3-dihydro-benzofuran-3-yl)-acetic acid], which EC50 is on record?
**A.** 11 nM

**Q.** `Cc1cc(OCCCCS(C)(=O)=O)cc(C)c1-c1ccc(F)c2c1CC[C@H]2Oc1ccc2c(c1)OC[C@H]2CC(=O)O` [Example 43, ((S)-6-{(R)-7-Fluoro-4-[4-(4-methanesulfonyl-butoxy)-2,6-dimethyl-phenyl]-indan-1-yloxy}-2,3-dihydro-benzofuran-3-yl)-acetic acid] was tested. Which EC50 did it give?
**A.** 22 nM

**Q.** With `Cc1cc(O[C@@H]2CCN(S(C)(=O)=O)C2)cc(C)c1-c1ccc(F)c2c1CC[C@H]2Oc1ccc2c(c1)OC[C@H]2CC(=O)O` [Example 44, ((S)-6-{(R)-7-Fluoro-4-[4-((R)-1-methanesulfonyl-pyrrolidin-3-yloxy)-2,6-dimethyl-phenyl]-indan-1-yloxy}-2,3-dihydro-benzofuran-3-yl)-acetic acid] as the compound, how does the EC50 read?
**A.** 17 nM

**Q.** For `Cc1cc(OCC(C)(C)S(C)(=O)=O)cc(C)c1-c1ccc(F)c2c1CC[C@H]2Oc1ccc2c(c1)OC[C@H]2CC(=O)O` [Example 45, ((S)-6-{(R)-7-Fluoro-4-[4-(2-methanesulfonyl-2-methyl-propoxy)-2,6-dimethyl-phenyl]-indan-1-yloxy}-2,3-dihydro-benzofuran-3-yl)-acetic acid], which EC50 is on record?
**A.** 9 nM

**Q.** Which EC50 does the source give for `Cc1cc(OC2CCN(S(C)(=O)=O)CC2)cc(C)c1-c1ccc(F)c2c1CC[C@H]2Oc1ccc2c(c1)OC[C@H]2CC(=O)O` [Example 48, ((S)-6-{(R)-7-Fluoro-4-[4-(1-methanesulfonyl-piperidin-4-yloxy)-2,6-dimethyl-phenyl]-indan-1-yloxy}-2,3-dihydro-benzofuran-3-yl)-acetic acid] here?
**A.** 14 nM

**Q.** How did the EC50 turn out when `Cc1cc(O[C@@H]2CCCN(S(C)(=O)=O)C2)cc(C)c1-c1ccc(F)c2c1CC[C@H]2Oc1ccc2c(c1)OC[C@H]2CC(=O)O` [Example 49, ((S)-6-{(R)-7-Fluoro-4-[4-((R)-1-methanesulfonyl-piperidin-3-yloxy)-2,6-dimethyl-phenyl]-indan-1-yloxy}-2,3-dihydro-benzofuran-3-yl)-acetic acid] was run?
**A.** 10 nM

**Q.** Which EC50 does the source give for `Cc1cc(O[C@H]2CCCN(S(C)(=O)=O)C2)cc(C)c1-c1ccc(F)c2c1CC[C@H]2Oc1ccc2c(c1)OC[C@H]2CC(=O)O` [Example 50, ((S)-6-{(R)-7-Fluoro-4-[4-((S)-1-methanesulfonyl-piperidin-3-yloxy)-2,6-dimethyl-phenyl]-indan-1-yloxy}-2,3-dihydro-benzofuran-3-yl)-acetic acid] here?
**A.** 20 nM

**Q.** For `Cc1cc(OCC2CCCS(=O)(=O)C2)cc(C)c1-c1ccc(F)c2c1CC[C@H]2Oc1ccc2c(c1)OC[C@H]2CC(=O)O` (stereo partly drawn) [Example 51, ((S)-6-{(R)-4-[4-(1,1-Dioxo-hexahydro-1-thiopyran-3-ylmethoxy)-2,6-dimethyl-phenyl]-7-fluoro-indan-1-yloxy}-2,3-dihydro-benzofuran-3-yl)-acetic acid], which EC50 is on record?
**A.** 7 nM

**Q.** How did the EC50 turn out when `Cc1cc(C(=O)NCC(C)(C)O)cc(C)c1-c1ccc(F)c2c1CC[C@H]2Oc1ccc2c(c1)OC[C@H]2CC(=O)O` [Example 54, ((S)-6-{(R)-7-Fluoro-4-[4-(2-hydroxy-2-methyl-propylcarbamoyl)-2,6-dimethyl-phenyl]-indan-1-yloxy}-2,3-dihydro-benzofuran-3-yl)-acetic acid] was run?
**A.** 13 nM

**Q.** How did the EC50 turn out when `Cc1cc(OC(C)(C)CO)cc(C)c1-c1ccc(F)c2c1CC[C@H]2Oc1ccc2c(c1)OC[C@H]2CC(=O)O` [Example 55, ((S)-6-{(R)-7-Fluoro-4-[4-(2-hydroxy-1,1-dimethyl-ethoxy)-2,6-dimethyl-phenyl]-indan-1-yloxy}-2,3-dihydro-benzofuran-3-yl)-acetic acid] was run?
**A.** 25 nM

**Q.** How did the EC50 turn out when `Cc1cc(OC(C)(C)C(N)=O)cc(C)c1-c1ccc(F)c2c1CC[C@H]2Oc1ccc2c(c1)OC[C@H]2CC(=O)O` [Example 56, ((S)-6-{(R)-4-[4-(1-Carbamoyl-1-methyl-ethoxy)-2,6-dimethyl-phenyl]-7-fluoro-indan-1-yloxy}-2,3-dihydro-benzofuran-3-yl)-acetic acid] was run?
**A.** 43 nM

**Q.** How did the EC50 turn out when `Cc1cc(OCC(C)(C)C#N)cc(C)c1-c1ccc(F)c2c1CC[C@H]2Oc1ccc2c(c1)OC[C@H]2CC(=O)O` [Example 64, 2-((S)-6-((R)-4-(4-(2-Cyano-2-methylpropoxy)-2,6-dimethylphenyl)-7-fluoro-2,3-dihydro-1H-inden-1-yloxy)-2,3-dihydrobenzofuran-3-yl)acetic acid] was run?
**A.** 8 nM

**Q.** How did the EC50 turn out when `Cc1cc(OCC2(O)CCOCC2)cc(C)c1-c1ccc(F)c2c1CC[C@H]2Oc1ccc2c(c1)OC[C@H]2CC(=O)O` [Example 66, 2-((S)-6-((R)-7-Fluoro-4-(4-((4-hydroxytetrahydro-2H-pyran-4-yl)methoxy)-2,6-dimethylphenyl)-2,3-dihydro-1H-inden-1-yloxy)-2,3-dihydrobenzofuran-3-yl)acetic acid] was run?
**A.** 5 nM

**Q.** Which EC50 does the source give for `Cc1cc(CCC(C)(C)O)cc(C)c1-c1ccc(F)c2c1CC[C@H]2Oc1ccc2c(c1)OC[C@H]2CC(=O)O` [Example 67, 2-((S)-6-((R)-7-Fluoro-4-(4-(3-hydroxy-3-methylbutyl)-2,6-dimethylphenyl)-2,3-dihydro-1H-inden-1-yloxy)-2,3-dihydrobenzofuran-3-yl)acetic acid] here?
**A.** 7 nM

**Q.** With `Cc1cc(OCC2(O)CCSCC2)cc(C)c1-c1ccc(F)c2c1CC[C@H]2Oc1ccc2c(c1)OC[C@H]2CC(=O)O` [Example 68, 2-((S)-6-((R)-7-Fluoro-4-(4-((4-hydroxytetrahydro-2H-thiopyran-4-yl)methoxy)-2,6-dimethylphenyl)-2,3-dihydro-1H-inden-1-yloxy)-2,3-dihydrobenzofuran-3-yl)acetic acid] as the compound, how does the EC50 read?
**A.** 10 nM

**Q.** With `Cc1cc(OCC2(O)CCS(=O)(=O)CC2)cc(C)c1-c1ccc(F)c2c1CC[C@H]2Oc1ccc2c(c1)OC[C@H]2CC(=O)O` [Example 69, 2-((S)-6-((R)-7-Fluoro-4-(4-((1,1-dioxo-4-hydroxytetrahydro-2H-thiopyran-4-yl)methoxy)-2,6-dimethylphenyl)-2,3-dihydro-1H-inden-1-yloxy)-2,3-dihydrobenzofuran-3-yl)acetic acid] as the compound, how does the EC50 read?
**A.** 8 nM

**Q.** `Cc1cc(CCCS(C)(=O)=O)cc(C)c1-c1ccc(F)c2c1CC[C@H]2Oc1ccc2c(c1)OC[C@H]2CC(=O)O` [Example 70, 2-((S)-6-((R)-4-(2,6-Dimethyl-4-(3-(methylsulfonyl)propyl)phenyl)-7-fluoro-2,3-dihydro-1H-inden-1-yloxy)-2,3-dihydrobenzofuran-3-yl)acetic acid] was tested. Which EC50 did it give?
**A.** 60 nM

**Q.** With `Cc1cc(OCCNS(C)(=O)=O)cc(C)c1-c1ccc(F)c2c1CC[C@H]2Oc1ccc2c(c1)OC[C@H]2CC(=O)O` [Example 71, 2-((S)-6-((R)-4-(2,6-Dimethyl-4-(2-(methylsulfonamido)ethoxy)phenyl)-7-fluoro-2,3-dihydro-1H-inden-1-yloxy)-2,3-dihydrobenzofuran-3-yl)acetic acid] as the compound, how does the EC50 read?
**A.** 28 nM

**Q.** How did the EC50 turn out when `CC(=O)NCCc1cc(C)c(-c2ccc(F)c3c2CC[C@H]3Oc2ccc3c(c2)OC[C@H]3CC(=O)O)c(C)c1` [Example 72, 2-((S)-6-((R)-4-(4-(2-Acetamidoethyl)-2,6-dimethylphenyl)-7-fluoro-2,3-dihydro-1H-inden-1-yloxy)-2,3-dihydrobenzofuran-3-yl)acetic acid] was run?
**A.** 23 nM
